# Patent US11957671B2, “Benzodioxane modulators of leukotriene A4 hydrolase (LTA4H) for prevention and treatment of aging-associated diseases” (Alkahest, Inc., priority 2021, dated 2024)
# Molecular target: human LTA4 hydrolase (Homo sapiens (Human), UniProt P09960)
# Experiment: LTA4H Enzyme assay (cleavage of Arg-AMC)
# Format: biochemical
# Settings: LTA4H 1 nM, Arg-AMC 50 μM, room temperature 1 h
# Method: The compounds of the invention are assessed for the ability to interact with human LTA4 hydrolase in an enzymatic assay that measures the ability of the enzyme to cleave the peptide bond of arginyl-aminomethylcoumarin (Arg-AMC). LTA4H Enzyme (1 nM final), Arg-AMC substrate (50 μM final), and compound are combined in a reaction buffer (50 mM Tris-HCl (pH 7.5), 100 mM KCl, 0.5% bovine serum albumin) at room temperature for 1 h. The formation of product is assessed by measuring the fluorescence of aminomethylcoumarin product (excitation wavelength 380 nm/emission wavelength 460 nm).
# Sequence of human LTA4 hydrolase (P09960 whole entry): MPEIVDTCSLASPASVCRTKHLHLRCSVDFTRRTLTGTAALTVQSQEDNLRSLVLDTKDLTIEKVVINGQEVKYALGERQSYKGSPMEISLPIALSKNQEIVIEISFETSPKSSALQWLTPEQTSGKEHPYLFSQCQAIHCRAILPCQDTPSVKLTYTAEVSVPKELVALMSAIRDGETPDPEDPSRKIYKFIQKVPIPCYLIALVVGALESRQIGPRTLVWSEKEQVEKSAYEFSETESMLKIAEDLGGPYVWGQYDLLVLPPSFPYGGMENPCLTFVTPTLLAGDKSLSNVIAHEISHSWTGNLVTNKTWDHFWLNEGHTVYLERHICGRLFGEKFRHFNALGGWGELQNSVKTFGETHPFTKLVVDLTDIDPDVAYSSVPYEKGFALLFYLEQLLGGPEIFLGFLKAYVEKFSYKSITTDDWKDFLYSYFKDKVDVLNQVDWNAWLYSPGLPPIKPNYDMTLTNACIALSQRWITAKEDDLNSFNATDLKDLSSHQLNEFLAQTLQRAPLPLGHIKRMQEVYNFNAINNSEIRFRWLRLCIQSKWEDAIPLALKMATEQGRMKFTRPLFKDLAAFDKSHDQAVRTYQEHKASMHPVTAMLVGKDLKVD
row,Compound,IC50 [nM]
1,"c1ccc2c(c1)OCC(c1ccc(CN3CCn4cnnc4C3)cc1)O2 (centres unmarked) [Example 16, 7-[4-(2,3-dihydro-1,4-benzodioxin-2-yl)benzyl]-5,6,7,8-tetrahydro[1,2,4,]triazolo[4,3-a]pyrazine]",1.14
2,"O=S1(=O)CCN(Cc2ccc(C3COc4cccnc4O3)cc2)CC1 (centres unmarked) [Example 17, 3-{4-[(1,1-dioxidothiomorpholin-4-yl)methyl]phenyl}-2,3-dihydro[1,4]dioxino[2,3-b]pyridine]",0.73
3,"c1ccc2c(c1)OC[C@@H](c1ccc(CN3CCOCC3)cc1)O2 [Example 199, 4-{4-[(2R)-2,3-dihydro-1,4-benzodioxin-2-yl]benzyl}morpholine]",40.1
4,"c1cnc2c(c1)OCC(c1ccc(CN3CCCC3)cc1)O2 (centres unmarked) [Example 15, 3-[4-(pyrrolidin-1-ylmethyl)phenyl]-2,3-dihydro[1,4]dioxin[2,3-b]pyridine]",0.77
5,CC(=O)N1CCC(N(C)Cc2ccc([C@H]3COc4ccccc4O3)cc2)CC1 [Example 14],2.32

# Tested on: synthesis of LTB4 in human whole blood
# Experiment: human whole blood (HWB) assay, LTB4 production inhibition
# Format: cell-based
# Settings: calcimycin 20 μM
# Method: The compounds of the invention are additionally tested in a human whole blood (HWB) assay to determine their ability to inhibit the synthesis of LTB4 in a cellular system. Compounds are combined with heparinized human whole blood and incubated for 15 minutes at 37° C. Calcimycin (20 μM final, prepared in phosphate-buffered saline, pH 7.4) is then added and the mixture is incubated for another 30 minutes at 37° C. The samples are centrifuged for 5 min at low speed (1500×g) and the plasma layer is removed. Plasma LTB4 concentrations are then measured using an antibody-based homogenous time-resolved fluorescence method (CisBio, Bedford, Mass.). In general, the preferred potency range (IC50) of compounds in the HWB assay is between 10 nM to 10 μM, the more preferred potency range is 10 nM to 1 μM, and the most preferred potency range is 10 nM to 100 nM.
row,Compound,IC50 [nM]
1,CC(=O)N1CCC(N(C)Cc2ccc([C@H]3COc4ccccc4O3)cc2)CC1 [Example 14],155
2,"CCN(C)Cc1ccc([C@H]2COc3cccnc3O2)cc1 [Example 140, N-{4-[(3S)-2,3-dihydro[1,4]dioxino[2,3-b]pyridin-3-yl]benzyl}-N-methylethanamine]",33.4
3,"CC(c1ccc([C@H]2COc3ccccc3O2)cc1)N1CCC(C(=O)O)CC1 (stereo partly drawn) [Example 227, 1-(1-{4-[(2S)-2,3-dihydro-1,4-benzodioxin-2-yl]phenyl}ethyl)piperidine-4-carboxylic acid]",307
4,"COC1CCN(Cc2ccc([C@H]3COc4ccccc4O3)cc2)CC1 [Example 98, 1-{4-[(2S)-2,3-dihydro-1,4-benzodioxin-2-yl]benzyl}-4-methoxypiperidine]",180
5,"CCN(Cc1ccc([C@H]2COc3ccccc3O2)cc1)C1CCCC1 [Example 109, N-{4-[(2S)-2,3-dihydro-1,4-benzodioxin-2-yl]benzyl}-N-ethylcyclopentanamine]",75.5
6,"CC(C)(CN1CCCC1)NCc1ccc([C@H]2COc3cccnc3O2)cc1 [Example 157, N-{4-[(3S)-2,3-dihydro[1,4]dioxino[2,3-b]pyridin-3-yl]benzyl}-2-methyl-1-(pyrrolidin-1-yl)propan-2-amine]",35
7,"CC(=O)N1CC[C@@H](NCc2ccc([C@H]3COc4ccccc4O3)cc2)C1 [Example 64, 1-[(3R)-3-({4-[(2S)-2,3-dihydro-1,4-benzodioxin-2-yl]benzyl}amino)pyrrolidin-1-yl]ethanone]",158
8,"NC(=O)NC1CCN(Cc2ccc([C@H]3COc4ccccc4O3)cc2)CC1 [Example 175, 1-(1-{4-[(2S)-2,3-dihydro-1,4-benzodioxin-2-yl]benzyl}piperidin-4-yl)urea]",72.6
9,"O=C1CCCN1CC1CCN(Cc2ccc([C@H]3COc4ccccc4O3)cc2)CC1 [Example 99, 1-[(1-{4-[(2S)-2,3-dihydro-1,4-benzodioxin-2-yl]benzyl}piperidin-4-yl)methyl]pyrrolidin-2-one]",95.4
10,"OCC1CCCN(Cc2ccc([C@H]3COc4ccccc4O3)cc2)C1 (stereo partly drawn) [Example 69, (1-{4-[(2S)-2,3-dihydro-1,4-benzodioxin-2-yl]benzyl}piperidin-3-yl)methanol]",165
11,"c1cnc2c(c1)OC[C@H](c1ccc(CN3CCCCCC3)cc1)O2 [Example 139, (3S)-3-[4-(azepan-1-ylmethyl)phenyl]-2,3-dihydro[1,4]dioxino[2,3-b]pyridine]",13.2
12,"c1cnc2c(c1)OC[C@H](c1ccc(CN3[C@H]4CC[C@@H]3CC4)cc1)O2 [Example 145, (3S)-3-{4-[(1s,4s)-7-azabicyclo[2.2.1]hept-7-ylmethyl]phenyl}-2,3-dihydro[1,4]dioxino[2,3-b]pyridine]",28.4
13,"c1cnc2c(c1)OC[C@H](c1ccc(CN3CCn4cnnc4C3)cc1)O2 [Example 156, (3S)-3-[4-(5,6-dihydro[1,2,4]triazolo[4,3-a]pyrazin-7(8H)-ylmethyl)phenyl]-2,3-dihydro[1,4]dioxino[2,3-b]pyridine]",159
14,"CN1CCC2(CCN(Cc3ccc([C@H]4COc5ccccc5O4)cc3)CC2)C1=O [Example 121, 8-{4-[(2S)-2,3-dihydro-1,4-benzodioxin-2-yl]benzyl}-2-methyl-2,8-diazaspiro[4.5]decan-1-one]",159
15,"CN(Cc1ccc([C@H]2COc3ccccc3O2)cc1)C1CCCCC1 [Example 67, N-{4-[(2S)-2,3-dihydro-1,4-benzodioxin-2-yl]benzyl}-N-methylcyclohexanamine]",346
16,"COC1CCN(Cc2ccc([C@H]3COc4cccnc4O3)cc2)C1 (stereo partly drawn) [Example 168, (3S)-3-{4-[(3-methoxypyrrolidin-1-yl)methyl]phenyl}-2,3-dihydro[1,4]dioxino[2,3-b]pyridine]",39
17,"c1ccc2c(c1)OC[C@H](c1ccc(CN3CCC[C@H]4CCCC[C@@H]43)cc1)O2 [Example 85, (4aR,8aS)-1-{4-[(2S)-2,3-dihydro-1,4-benzodioxin-2-yl]benzyl}decahydroquinoline]",305
18,"CC(C)(O)C(=O)NC1CCN(Cc2ccc([C@H]3COc4ccccc4O3)cc2)CC1 [Example 220, N-(1-{4-[(2S)-2,3-dihydro-1,4-benzodioxin-2-yl]benzyl}piperidin-4-yl)-2-hydroxy-2-methylpropanamide]",91.3
